# Assay results from ChEMBL document CHEMBL3813600, “Identification of a novel boronic acid as a potent, selective, and orally active hormone sensitive lipase inhibitor” (Bioorg Med Chem, 2016).
# Activity calls are given as the source filed them. No cut-off for these calls is given here.
# What was measured:
# [1] = target: T1, Hormone-sensitive lipase (Homo sapiens) (UniProt Q05469); assay: Inhibition of recombinant human HSL expressed in Sf9 insect cells at 1 uM using PNPB as substrate measured after 5 mins by spectrophotometric method
# T1 sequence (whole entry): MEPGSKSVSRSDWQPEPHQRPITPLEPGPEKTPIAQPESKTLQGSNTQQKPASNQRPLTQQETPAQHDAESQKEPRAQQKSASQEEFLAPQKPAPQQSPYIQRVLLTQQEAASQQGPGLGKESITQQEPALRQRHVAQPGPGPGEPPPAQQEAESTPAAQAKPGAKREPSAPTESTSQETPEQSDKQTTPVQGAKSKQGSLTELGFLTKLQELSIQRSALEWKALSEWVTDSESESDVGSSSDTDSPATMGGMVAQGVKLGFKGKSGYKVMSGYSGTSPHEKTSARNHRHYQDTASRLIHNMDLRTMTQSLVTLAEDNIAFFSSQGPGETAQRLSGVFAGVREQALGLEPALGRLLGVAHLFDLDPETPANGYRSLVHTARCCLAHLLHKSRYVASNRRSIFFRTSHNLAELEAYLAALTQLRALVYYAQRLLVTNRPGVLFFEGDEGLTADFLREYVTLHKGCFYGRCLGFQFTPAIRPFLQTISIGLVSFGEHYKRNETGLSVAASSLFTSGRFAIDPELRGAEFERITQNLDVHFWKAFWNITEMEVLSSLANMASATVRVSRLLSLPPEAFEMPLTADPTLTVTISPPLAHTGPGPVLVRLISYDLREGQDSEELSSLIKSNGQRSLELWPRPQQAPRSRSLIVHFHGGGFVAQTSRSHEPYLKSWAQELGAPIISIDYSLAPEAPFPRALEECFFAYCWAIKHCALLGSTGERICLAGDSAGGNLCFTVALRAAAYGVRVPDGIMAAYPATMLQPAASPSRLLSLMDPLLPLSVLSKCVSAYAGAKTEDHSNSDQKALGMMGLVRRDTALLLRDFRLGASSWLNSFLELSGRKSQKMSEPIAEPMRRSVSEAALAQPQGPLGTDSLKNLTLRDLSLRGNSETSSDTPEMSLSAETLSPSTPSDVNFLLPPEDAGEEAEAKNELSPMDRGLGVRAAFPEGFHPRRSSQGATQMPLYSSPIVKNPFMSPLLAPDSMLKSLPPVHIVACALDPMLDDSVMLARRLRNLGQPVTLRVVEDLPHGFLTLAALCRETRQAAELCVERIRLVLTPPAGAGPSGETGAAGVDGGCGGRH
# Hormone-sensitive lipase = target: T2, Hormone-sensitive lipase (Homo sapiens, UniProt Q05469); assay: Inhibition of recombinant human HSL expressed in Sf9 insect cells using PNPB as substrate measured after 5 mins by spectrophotometric method
# T2 sequence (Q05469 whole entry): T1 sequence (whole entry)
# [2] = target: T1, Hormone-sensitive lipase (Homo sapiens); assay: Inhibition of recombinant human HSL expressed in Sf9 insect cells at 10 uM using PNPB as substrate measured after 5 mins by spectrophotometric method
# [3] = target: Acetylcholinesterase (Homo sapiens) (UniProt P22303); assay: Inhibition of AChE (unknown origin) at >50 uM preincubated for 10 mins followed by addition of acetylthiocholine iodide as substrate measured after 15 mins by spectrophotometric method
# Chain of Acetylcholinesterase (Homo sapiens) (P22303 whole entry): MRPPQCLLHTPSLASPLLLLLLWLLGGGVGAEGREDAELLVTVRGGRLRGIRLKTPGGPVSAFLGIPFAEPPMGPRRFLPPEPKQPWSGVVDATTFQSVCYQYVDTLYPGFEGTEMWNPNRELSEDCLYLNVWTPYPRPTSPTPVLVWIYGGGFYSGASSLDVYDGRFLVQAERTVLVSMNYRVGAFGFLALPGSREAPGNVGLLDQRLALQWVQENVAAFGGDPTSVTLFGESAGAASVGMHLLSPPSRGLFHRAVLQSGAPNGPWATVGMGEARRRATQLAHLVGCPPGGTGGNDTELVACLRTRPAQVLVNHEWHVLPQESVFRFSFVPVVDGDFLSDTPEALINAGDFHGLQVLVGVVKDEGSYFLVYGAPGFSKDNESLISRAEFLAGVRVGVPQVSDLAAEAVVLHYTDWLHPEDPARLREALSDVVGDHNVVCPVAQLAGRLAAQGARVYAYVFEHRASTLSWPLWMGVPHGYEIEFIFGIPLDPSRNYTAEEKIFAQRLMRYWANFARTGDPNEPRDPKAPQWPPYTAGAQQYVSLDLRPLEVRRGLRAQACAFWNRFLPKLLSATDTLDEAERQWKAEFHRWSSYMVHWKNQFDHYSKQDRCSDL
# Rattus norvegicus [4] = assay: Antilipolytic activity in orally dosed fasted Wistar rat assessed as reduction of plasma glycerol AUC ( 0 to 7 hrs); format: functional, organism-based
# Rattus norvegicus [5] = assay: Antilipolytic activity in fasted Wistar rat assessed as reduction of plasma glycerol AUC ( 0 to 7 hrs) at 3 mg/kg, po; format: functional; set-up: scale not given: the % may be the effect or the level left
# [6] = AUC (0 to 7 hrs) in rat at 3 mg/kg, po by LC-MS/MS analysis; format: ADME, organism-based; set-up: time < 7 hr, dose 3 mg/kg, route oral; conditions: in vivo
# [7] = target: T1, Hormone-sensitive lipase (Homo sapiens); assay: Mixed-type inhibition of recombinant human HSL expressed in Sf9 insect cells using PNPB as substrate measured after 5 mins by Lineweaver-Burk plot analysis
# [8] = target: Cholinesterase (Homo sapiens) (UniProt P06276); assay: Inhibition of BChE (unknown origin) at >50 uM preincubated for 10 mins followed by addition of S-butyrylthiocholine iodide as substrate measured after 15 mins by spectrophotometric method
# Chain of Cholinesterase (Homo sapiens) (P06276 whole entry): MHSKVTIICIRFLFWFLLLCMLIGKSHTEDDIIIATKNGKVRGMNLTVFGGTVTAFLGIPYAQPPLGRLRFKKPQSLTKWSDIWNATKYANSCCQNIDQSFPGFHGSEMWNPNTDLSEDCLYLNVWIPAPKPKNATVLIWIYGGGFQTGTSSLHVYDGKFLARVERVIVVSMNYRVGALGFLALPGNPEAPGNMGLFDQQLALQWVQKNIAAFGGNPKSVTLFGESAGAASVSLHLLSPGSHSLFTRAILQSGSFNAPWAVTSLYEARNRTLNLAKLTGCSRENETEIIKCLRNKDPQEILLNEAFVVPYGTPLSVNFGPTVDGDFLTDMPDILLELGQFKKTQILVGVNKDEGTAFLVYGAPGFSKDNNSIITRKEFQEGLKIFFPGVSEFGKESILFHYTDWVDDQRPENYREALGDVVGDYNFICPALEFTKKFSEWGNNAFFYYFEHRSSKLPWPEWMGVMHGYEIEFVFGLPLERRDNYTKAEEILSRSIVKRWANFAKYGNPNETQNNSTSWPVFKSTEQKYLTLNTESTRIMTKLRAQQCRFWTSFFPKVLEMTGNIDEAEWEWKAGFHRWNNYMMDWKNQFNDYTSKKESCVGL
# [9] = Cmax in rat at 3 mg/kg, po by LC-MS/MS analysis; format: ADME, organism-based; set-up: dose 3 mg/kg, route oral; conditions: in vivo
# [10] = Half life in rat plasma at 3 mg/kg, po by LC-MS/MS analysis; format: ADME, organism-based
# Rattus norvegicus [11] = assay: Antilipolytic activity in fasted Wistar rat assessed as reduction of plasma glycerol AUC ( 0 to 7 hrs) at 10 mg/kg, po; format: functional, organism-based
smiles,measurement,setting,value
CC1(C)OB(c2cccc(OCc3ccc(Oc4ccc(C(F)(F)F)cn4)cc3)c2)OC1(C)C,inhibition,[1],59%
CC1(C)OB(c2ccc(OCc3ccc(Oc4ccc(C(F)(F)F)cn4)cc3)cc2)OC1(C)C,inhibition,[1],-10%
OB(O)c1ccccc1OCc1ccccc1,IC50,Hormone-sensitive lipase,130 nM
O=C(c1ccccc1OCc1ccc(Oc2ccc(C(F)(F)F)cn2)cc1)C(F)(F)F,inhibition,[1],1%
N#Cc1ccccc1OCc1ccc(Oc2ccc(C(F)(F)F)cn2)cc1,inhibition,[1],0%
O=P(O)(O)c1ccccc1OCc1ccc(Oc2ccc(C(F)(F)F)cn2)cc1,inhibition,[1],-5%
O=C(Nc1ccc(Oc2ccc(C(F)(F)F)cn2)cc1)N1CCC(O)CC1,inhibition,[2],0%
CC1(C)OB(c2ccccc2OCc2ccc(Oc3ccc(C(F)(F)F)cn3)cc2)OC1(C)C,inhibition,[1],81%
O=C(O)c1ccccc1OCc1ccc(Oc2ccc(C(F)(F)F)cn2)cc1,inhibition,[1],-8%
OB(O)c1ccccc1OCc1ccc(Oc2ccc(C(F)(F)F)cn2)cc1,inhibition,[3],inactive
same,Activity,Rattus norvegicus [4],Dose-dependent effect
same,Activity,Rattus norvegicus [5],11%
same,AUC(0-t) at 7 h,[6],1750 ng·h/mL
same,inhibition,[7],Active
same,inhibition,[8],inactive
same,Cmax,[9],420 ng/mL
same,IC50,Hormone-sensitive lipase,7 nM
same,half-life,[10],177 min
same,inhibition,[1],89%
O=C(Cc1ccc(Oc2ccc(C(F)(F)F)cn2)cc1)N1CCC(O)CC1,inhibition,[2],2%
O=C(Oc1ccc(Oc2ccc(C(F)(F)F)cn2)cc1)N1CCC(O)CC1,Activity,Rattus norvegicus [11],Active
same,IC50,Hormone-sensitive lipase,270 nM
